Measured values from patent US20120077837A1, “ANTI-TUMOR AGENT” (EISAI R&D MANAGEMENT CO., LTD., priority 2010, published 2012).

Tested on: human renal cell carcinoma cell line (Caki-1)
Assay: Tumor growth-inhibitory action by combined use of Compound A and everolimus in nude mice transplanted with Caki-1
Type: in vivo
Conditions: subcutaneous Caki-1 xenograft, oral once per day, Compound A 10 mg/kg, everolimus 30 mg/kg
Protocol: Using 5 individuals per group of nude mice (CAnN.Cg-Foxn1nu/Cr1Cr1j, female, Charles River Japan, Inc.), the antitumor effect obtained when Compound A, everolimus or the both compounds was/were administered was evaluated. Human-derived renal cell carcinoma cell line Caki-1(ATCC) was added to a medium (RPMI-1640, Wako Pure Chemical Industries, Ltd.) to a density of 2×10^8 cells/mL and suspended therein. To the resulting suspension, an equal volume of Matrigel™ matrix (Nippon Becton Dickinson Co., Ltd.) was added, and the resulting mixture was mixed sufficiently. The mixture was subcutaneously transplanted at the left flank of each mouse in an amount of 0.1 mL.
Forty eight days after the transplantation, the major axis and the minor axis were measured using an electronic digital caliper (Digimatic™ caliper, Mitutoyo Corporation). The mice were separated into groups such that the average value of the tumor volume is almost the same among the groups. The volume of the tumor was calculated according to the equation below.
Tumor volume=major axis (mm)×minor axis (mm)×minor axis (mm)/2
Compound A was dissolved in purified water to a concentration of 1 mg/mL. Further, everolimus was suspended in a mixed solution of DMSO, Tween 80 and glucose (3.5:6.5:90 (V/V/V), hereinafter referred to as solvent) to a concentration of 3 mg/mL.
To the mice of each group, the Compound A solution and the solvent, the everolimus suspension and purified water, or the Compound A solution and the everolimus suspension were orally administered in an amount of 10 mL/kg once per day for 15 days. The doses of Compound A and everolimus were 10 mg/kg and 30 mg/kg, respectively. To the control group, 10 mL/kg each of purified water and the solvent was administered.
The tumor volume of each mouse was measured on Day 4, 7, 11 and 14 after the beginning of the administration. The ratio of the tumor volume observed on each day of the measurement relative to the tumor volume observed on the day when the administration was begun was calculated as the relative tumor volume (hereinafter referred to as RTV).

[1] = Day 4 after beginning of administration
[2] = Day 7 after beginning of administration
[3] = Day 11 after beginning of administration
[4] = Day 14 after beginning of administration

SMILES	relative tumor volume (RTV) [1]	relative tumor volume (RTV) [2]	relative tumor volume (RTV) [3]	relative tumor volume (RTV) [4]
COc1cc2nccc(Oc3ccc(NC(=O)NC4CC4)c(Cl)c3)c2cc1C(N)=O [Compound A, 4-[3-chloro-4-(cyclopropylaminocarbonyl)aminophenoxy]-7-methoxy-6-quinolinecarboxamide]	1.15	1.15	1.07	1.02
COC1CC2CCC(C)C(O)(O2)C(=O)C(=O)N2CCCCC2C(=O)OC(C(C)CC2CCC(OCCO)C(OC)C2)CC(=O)C(C)/C=C(\C)C(O)C(OC)C(=O)C(C)CC(C)/C=C/C=C/C=C/1C (centres unmarked) [Everolimus, 42-O-(2-hydroxyethyl)-rapamycin]	1.03	0.97	0.95	0.92
